Data published in US9149038B2, “4-amino-6-(heterocyclic)picolinates and 6-amino-2-(heterocyclic)pyrimidine-4-carboxylates and their use as herbicides” (Dow AgroSciences LLC, priority 2013, dated 2015).
Like-named read-outs stand apart in the source and are kept apart here.

What was measured:
[1] = test system: Key Broadleaf Weed and Crop Species; assay: Post-Emergent Test II: postemergent herbicidal activity, visual rating after 14 d (Table 7); assay type: in vivo; conditions: post-emergence, 336 h; for pest or weed control at 35 g/ha: 35 g ai/ha; for pest or weed control at 70 g/ha: 70 g ai/ha; for pest or weed control at 140 g/ha: 140 g ai/ha
Method in brief: (§1)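 Plants were raised in a greenhouse for 7-21 d and treated once at the first or second true leaf stage. Compounds, dissolved in 97:3 acetone:DMSO then diluted into an aqueous acetone/isopropanol/crop oil/Triton X-155 carrier, were applied by overhead track sprayer at 187 L/ha. After 14 d with subirrigation, injury was scored visually from 0 (none) to 100 (complete kill).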

[2] = test system: Key Grass and Sedge Weeds as well as Grass Crops; assay: Post-Emergent Test II: postemergent herbicidal activity, visual rating after 14 d (Table 8); assay type: in vivo; conditions: post-emergence, 336 h; for pest or weed control at 35 g/ha: 35 g ai/ha; for pest or weed control at 70 g/ha: 70 g ai/ha; for pest or weed control at 140 g/ha: 140 g ai/ha
Method in brief: as §1

[3] = ABUTH: velvetleaf (Abutilon theophrasti), read-out: Visual Growth Reduction (%) 14 Days After Application ABUTH
[4] = AMARE: redroot pigweed (Amaranthus retroflexus), read-out: Visual Growth Reduction (%) 14 Days After Application AMARE
[5] = BRSNN: oilseed rape, canola (Brassica napus), read-out: Visual Growth Reduction (%) 14 Days After Application BRSNN
[6] = CHEAL: lambsquarters (Chenopodium album), read-out: Visual Growth Reduction (%) 14 Days After Application CHEAL
[7] = EPHHL: wild poinsettia (Euphorbia heterophylla), read-out: Visual Growth Reduction (%) 14 Days After Application EPHHL
[8] = HELAN: sunflower (Helianthus annuus), read-out: Visual Growth Reduction (%) 14 Days After Application HELAN
[9] = barnyardgrass (Echinochloa crus-galli), read-out: Visual Growth Reduction (%) 14 Days After Application, ECHCG
[10] = giant foxtail (Setaria faberi), read-out: Visual Growth Reduction (%) 14 Days After Application, SETFA
[11] = maize, corn (Zea mays), read-out: Visual Growth Reduction (%) 14 Days After Application, ZEAMX
[12] = rice (Oryza sativa), read-out: Visual Growth Reduction (%) 14 Days After Application, ORYSA
[13] = wheat, spring (Triticum aestivum), read-out: Visual Growth Reduction (%) 14 Days After Application, TRZAS
[14] = yellow nutsedge (Cyperus esculentus), read-out: Visual Growth Reduction (%) 14 Days After Application, CYPES

## Nc1cc(-c2ccc(Cl)c3c2OC(F)(F)O3)nc(C(=O)O)c1Cl [Compound 87]
[1]; [3]
  pest or weed control at 35 g/ha: 75 to 84%
  pest or weed control at 70 g/ha: 85 to 94%
  pest or weed control at 140 g/ha: 85 to 94%
[1]; [4]
  pest or weed control at 35 g/ha: 95 to 100%
  pest or weed control at 70 g/ha: 95 to 100%
  pest or weed control at 140 g/ha: 95 to 100%
[1]; [5]
  pest or weed control at 35 g/ha: 60 to 74%
  pest or weed control at 70 g/ha: 75 to 84%
  pest or weed control at 140 g/ha: 85 to 94%
[1]; [6]
  pest or weed control at 35 g/ha: 95 to 100%
  pest or weed control at 70 g/ha: 95 to 100%
  pest or weed control at 140 g/ha: 95 to 100%
[1]; [7]
  pest or weed control at 35 g/ha: 0 to 29%
  pest or weed control at 70 g/ha: 0 to 29%
  pest or weed control at 140 g/ha: 0 to 29%
[1]; [8]
  pest or weed control at 35 g/ha: 75 to 84%
  pest or weed control at 70 g/ha: 75 to 84%
  pest or weed control at 140 g/ha: 75 to 84%
[2]; [9]
  pest or weed control at 35 g/ha: 0 to 29%
  pest or weed control at 70 g/ha: 0 to 29%
  pest or weed control at 140 g/ha: 0 to 29%
[2]; [10]
  pest or weed control at 35 g/ha: 0 to 29%
  pest or weed control at 70 g/ha: 0 to 29%
  pest or weed control at 140 g/ha: 0 to 29%
[2]; [11]
  pest or weed control at 35 g/ha: 0 to 29%
  pest or weed control at 70 g/ha: 0 to 29%
  pest or weed control at 140 g/ha: 0 to 29%
[2]; [12]
  pest or weed control at 35 g/ha: 0 to 29%
  pest or weed control at 70 g/ha: 0 to 29%
  pest or weed control at 140 g/ha: 0 to 29%
[2]; [13]
  pest or weed control at 35 g/ha: 0 to 29%
  pest or weed control at 70 g/ha: 0 to 29%
  pest or weed control at 140 g/ha: 0 to 29%
[2]; [14]
  pest or weed control at 35 g/ha: 0 to 29%
  pest or weed control at 70 g/ha: 0 to 29%
  pest or weed control at 140 g/ha: 0 to 29%
